Laboratory results reported in patent publication US20240158418A1 (C4 Therapeutics, Inc., priority 2021, published 2024).

What follows are compounds tested against T1, EGFR L858R-T790M (Homo sapiens, UniProt P00533, L858R/T790M) (assay: EGFR degradation, Total EGFR (L858R-specific) HTRF, NCI-H1975). Conditions: Table 9A; NCI-H1975 cells, 6 hours, Total EGFR HTRF; read-out: H1975 EGFR DC50.
T1 construct: NCI-H1975 (harboring EGFR heterozygous L858R-T790M mutations); host or cells: NCI-H1975
Format: cell-based
In short: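 FRET signal from HTRF kits measured phospho-EGFR at pY1068 or total EGFR after 6 h treatment at 37 °C. Compounds ran as 11-point half-log dilutions from 10 μM in duplicate, in cells in phenol red-free RPMI with 10% FBS. Concentrations giving 50% inhibition or degradation were reported as IC50 or DC50.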

T1 sequence (P00533 25-1210 T790M/L858R): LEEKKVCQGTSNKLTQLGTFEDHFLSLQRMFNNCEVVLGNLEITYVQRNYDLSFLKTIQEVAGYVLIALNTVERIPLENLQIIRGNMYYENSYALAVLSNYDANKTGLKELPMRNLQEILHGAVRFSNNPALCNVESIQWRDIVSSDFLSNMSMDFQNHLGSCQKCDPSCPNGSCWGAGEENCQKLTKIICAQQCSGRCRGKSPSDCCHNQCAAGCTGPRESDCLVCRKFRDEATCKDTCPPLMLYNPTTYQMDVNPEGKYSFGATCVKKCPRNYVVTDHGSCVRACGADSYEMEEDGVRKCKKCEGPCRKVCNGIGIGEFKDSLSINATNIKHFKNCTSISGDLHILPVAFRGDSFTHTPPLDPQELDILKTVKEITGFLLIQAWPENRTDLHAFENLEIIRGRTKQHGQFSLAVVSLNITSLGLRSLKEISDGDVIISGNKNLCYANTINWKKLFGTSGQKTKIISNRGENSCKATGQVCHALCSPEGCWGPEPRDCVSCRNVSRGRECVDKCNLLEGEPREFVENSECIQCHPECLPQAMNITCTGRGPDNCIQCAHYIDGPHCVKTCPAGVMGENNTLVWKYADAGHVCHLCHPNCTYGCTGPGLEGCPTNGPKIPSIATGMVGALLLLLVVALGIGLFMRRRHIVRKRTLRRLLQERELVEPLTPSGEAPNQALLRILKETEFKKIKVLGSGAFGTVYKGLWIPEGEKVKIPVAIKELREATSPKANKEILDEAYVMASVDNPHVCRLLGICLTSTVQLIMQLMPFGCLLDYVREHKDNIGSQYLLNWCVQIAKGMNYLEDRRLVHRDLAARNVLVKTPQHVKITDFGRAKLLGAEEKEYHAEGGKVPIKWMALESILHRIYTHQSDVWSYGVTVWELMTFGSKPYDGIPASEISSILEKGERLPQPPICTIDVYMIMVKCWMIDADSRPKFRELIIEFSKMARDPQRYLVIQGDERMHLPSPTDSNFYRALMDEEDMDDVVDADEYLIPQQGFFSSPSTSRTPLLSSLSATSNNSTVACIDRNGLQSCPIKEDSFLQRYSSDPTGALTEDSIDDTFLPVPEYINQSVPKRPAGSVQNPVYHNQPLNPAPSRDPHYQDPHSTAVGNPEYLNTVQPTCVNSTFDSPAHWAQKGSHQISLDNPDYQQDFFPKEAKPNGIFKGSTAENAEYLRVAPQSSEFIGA

Row | DC50 | SMILES
1 | < 50 nM | O=C1CCC(Nc2ccc(C3CCN(CC(=O)N4CCN(c5ccc(-c6cc(F)c7cn(C(C(=O)Nc8nccs8)c8ncn9c8CCC9)nc7c6)cn5)CC4)CC3)cc2)C(=O)N1 (stereo not shown) [Compound 65, 2-(6,7-dihydro-5H-pyrrolo[1,2-c]imidazol-1-yl)-2-[6-[6-[4-[2-[4-[4-[(2,6-dioxo-3-piperidyl)amino]phenyl]-1-piperidyl]acetyl]piperazin-1-yl]-3-pyridyl]-4-fluoro-indazol-2-yl]-N-thiazol-2-yl-acetamide]
2 | < 50 nM | Cn1nc(N2CCC(=O)NC2=O)c2ccc(C3CCN(CC(=O)N4CC5(C4)CN(c4ccc(-c6cc(F)c7c(c6)C(=O)N(C(C(=O)Nc6ccccn6)c6ncn8c6CCC8)C7)cc4)C5)CC3)cc21 (stereo not shown) [Compound 54, 2-(6,7-dihydro-5H-pyrrolo[1,2-c]imidazol-1-yl)-2-[6-[4-[2-[2-[4-[3-(2,4-dioxohexahydropyrimidin-1-yl)-1-methyl-indazol-6-yl]-1-piperidyl]acetyl]-2,6-diazaspiro[3.3]heptan-6-yl]phenyl]-4-fluoro-1-oxo-isoindolin-2-yl]-N-(2-pyridyl)acetamide]
3 | < 50 nM | O=C1CCC(N2Cc3c(OC4CCN(C(=O)CCCN5CCN(c6ccc(-c7ccc8cn(C(C(=O)Nc9nccs9)c9ncn%10c9CCC%10)nc8c7F)cn6)CC5)CC4)cccc3C2=O)C(=O)N1 (racemic) [Compound 62, (2RS)-2-(6,7-Dihydro-5H-pyrrolo[1,2-c]imidazol-1-yl)-2-[7-fluoro-6-[6-[4-[4-oxo-4-[4-[1-oxo-2-[(3RS)-2,6-dioxo-3-piperidyl]isoindolin-4-yl]oxy-1-piperidyl]butyl]piperazin-1-yl]-3-pyridyl]indazol-2-yl]-N-thiazol-2-yl-acetamide]
4 | 50 to 150 nM | O=C1CCC(Nc2cccc(C3CCN(CC(=O)N4CCN(c5ccc(-c6cc(F)c7c(c6)C(=O)N(C(C(=O)Nc6nccs6)c6ncn8c6CCC8)C7)cc5)CC4)CC3)c2)C(=O)N1 (stereo not shown) [Compound 16, 2-(6,7-dihydro-5H-pyrrolo[1,2-c]imidazol-1-yl)-2-(6-(4-(4-(2-(4-(3-((2,6-dioxopiperidin-3-yl)amino)phenyl)piperidin-1-yl)acetyl)piperazin-1-yl)phenyl)-4-fluoro-1-oxoisoindolin-2-yl)-N-(thiazol-2-yl)acetamide]
5 | < 50 nM | O=C1CCC(Nc2ccc(C3CCN(CC(=O)N4CCC(Oc5ccc(-c6cc(F)c7c(c6)C(=O)N(C(C(=O)Nc6nccs6)c6ncn8c6CCC8)C7)cc5)CC4)CC3)nc2)C(=O)N1 (stereo not shown) [Compound 36, 2-(6,7-dihydro-5H-pyrrolo[1,2-c]imidazol-1-yl)-2-(6-(4-((1-(2-(4-(5-((2,6-dioxopiperidin-3-yl)amino)pyridin-2-yl)piperidin-1-yl)acetyl)piperidin-4-yl)oxy)phenyl)-4-fluoro-1-oxoisoindolin-2-yl)-N-(thiazol-2-yl)acetamide]

Same assay, conditions: Table 9B; NCI-H1975 cells, 6 hours, Total EGFR HTRF; read-out: H1975 EGFR DC50

Row | SMILES | DC50
6 | Cn1nc(N2CCC(=O)NC2=O)c2ccc(C3CCN(C(=O)CC4CC5(C4)CN(c4ccc(-c6cc(F)c7c(c6)C(=O)N(C(C(=O)Nc6nccs6)c6ncn8c6CCC8)C7)cc4)C5)CC3(F)F)cc21 (stereo not shown) [Compound 102, 2-(6,7-dihydro-5H-pyrrolo[1,2-c]imidazol-1-yl)-2-(6-(4-(6-(2-(4-(3-(2,4-dioxotetrahydropyrimidin-1(2H)-yl)-1-methyl-1H-indazol-6-yl)-3,3-difluoropiperidin-1-yl)-2-oxoethyl)-2-azaspiro[3.3]heptan-2-yl)phenyl)-4-fluoro-1-oxoisoindolin-2-yl)-N-(thiazol-2-yl)acetamide] | < 50 nM
7 | Cn1nc(N2CCC(=O)NC2=O)c2ccc(C3CCN(CC(=O)N4CCN(c5ccc(-c6cc(F)c7cn(C(C(=O)Nc8nccs8)c8ncn9c8CCC9)nc7c6)cn5)CC4)CC3(F)F)cc21 (stereo not shown) [Compound 72, 2-(6,7-dihydro-5H-pyrrolo[1,2-c]imidazol-1-yl)-2-(6-(6-(4-(2-(4-(3-(2,4-dioxotetrahydropyrimidin-1(2H)-yl)-1-methyl-1H-indazol-6-yl)-3,3-difluoropiperidin-1-yl)acetyl)piperazin-1-yl)pyridin-3-yl)-4-fluoro-2H-indazol-2-yl)-N-(thiazol-2-yl)acetamide] | < 50 nM
8 | O=C1CC[C@H](Nc2ccc(N3CCC(O)(CC(=O)N4CC5(C4)CN(c4ccc(-c6cc(F)c7cn(C(C(=O)Nc8nccs8)c8ncn9c8CCC9)nc7c6)cc4)C5)CC3)c(F)c2)C(=O)N1 (stereo partly drawn) [Compound 77, 2-(6,7-dihydro-5H-pyrrolo[1,2-c]imidazol-1-yl)-2-[6-[4-[2-[2-[1-[4-[[(3S)-2,6-dioxo-3-piperidyl]amino]-2-fluoro-phenyl]-4-hydroxy-4-piperidyl]acetyl]-2,6-diazaspiro[3.3]heptan-6-yl]phenyl]-4-fluoro-indazol-2-yl]-N-thiazol-2-yl-acetamide] | < 50 nM
9 | Cn1nc(N2CCC(=O)NC2=O)c2ccc([C@H]3CCN(CC(=O)N4CC5(C4)CN(c4ccc(-c6cc(F)c7cn(C(C(=O)Nc8nccs8)c8ncn9c8CCC9)nc7c6)cc4)C5)CC3(F)F)cc21 (stereo partly drawn) [Compound 76, 2-(6,7-dihydro-5H-pyrrolo[1,2-c]imidazol-1-yl)-2-(6-(4-(6-(2-((R)-4-(3-(2,4-dioxotetrahydropyrimidin-1(2H)-yl)-1-methyl-1H-indazol-6-yl)-3,3-difluoropiperidin-1-yl)acetyl)-2,6-diazaspiro[3.3]heptan-2-yl)phenyl)-4-fluoro-2H-indazol-2-yl)-N-(thiazol-2-yl)acetamide] | < 50 nM

Next, values leading:

Row | DC50 | SMILES
10 | < 50 nM | O=C1CC[C@H](Nc2ccc(N3CCC(O)(CC(=O)N4CCC(n5cc(-c6cc(F)c7c(c6)C(=O)N(C(C(=O)Nc6nccs6)c6ncn8c6CCC8)C7)cn5)CC4)CC3)c(F)c2)C(=O)N1 (stereo partly drawn) [Compound 142, 2-(6,7-dihydro-5H-pyrrolo[1,2-c]imidazol-1-yl)-2-[6-[1-[1-[2-[1-[4-[[(3S)-2,6-dioxo-3-piperidyl]amino]-2-fluoro-phenyl]-4-hydroxy-4-piperidyl]acetyl]-4-piperidyl]pyrazol-4-yl]-4-fluoro-1-oxo-isoindolin-2-yl]-N-thiazol-2-yl-acetamide]
11 | < 50 nM | O=C1CCN(c2cc(Cl)c(N3CCC(O)(CC(=O)N4CC5(C4)CN(c4ccc(-c6cc(F)c7c(c6)C(=O)N(C(C(=O)Nc6nccs6)c6ncn8c6CCC8)C7)cc4)C5)CC3)c(Cl)c2)C(=O)N1 (stereo not shown) [Compound 169, 2-[6-[4-[2-[2-[1-[2,6-dichloro-4-(2,4-dioxohexahydropyrimidin-1-yl)phenyl]-4-hydroxy-4-piperidyl]acetyl]-2,6-diazaspiro[3.3]heptan-6-yl]phenyl]-4-fluoro-1-oxo-isoindolin-2-yl]-2-(6,7-dihydro-5H-pyrrolo[1,2-c]imidazol-1-yl)-N-thiazol-2-yl-acetamide]
12 | < 50 nM | O=C1CCN(c2ccc(N3CCC(O)(CC(=O)N4CCC5(CC4)CN(c4ccc(-c6cc(F)c7c(c6)C(=O)N(C(C(=O)Nc6nccs6)c6ncn8c6CCC8)C7)cc4)C5)CC3)c(Cl)c2)C(=O)N1 (stereo not shown) [Compound 170, 2-[6-[4-[7-[2-[1-[2-chloro-4-(2,4-dioxohexahydropyrimidin-1-yl)phenyl]-4-hydroxy-4-piperidyl]acetyl]-2,7-diazaspiro[3.5]nonan-2-yl]phenyl]-4-fluoro-1-oxo-isoindolin-2-yl]-2-(6,7-dihydro-5H-pyrrolo[1,2-c]imidazol-1-yl)-N-thiazol-2-yl-acetamide]
13 | < 50 nM | O=C1CCC(Nc2ccc(N3CCC(O)(CC(=O)N4CC5(CCN(c6ccc(-c7cc(F)c8c(c7)C(=O)N(C(C(=O)Nc7nccs7)c7ncn9c7CCC9)C8)cc6)CC5)C4)CC3)c(F)c2)C(=O)N1 (stereo not shown) [Compound 107, 2-(6,7-dihydro-5H-pyrrolo[1,2-c]imidazol-1-yl)-2-(6-(4-(2-(2-(1-(4-((2,6-dioxopiperidin-3-yl)amino)-2-fluorophenyl)-4-hydroxypiperidin-4-yl)acetyl)-2,7-diazaspiro[3.5]nonan-7-yl)phenyl)-4-fluoro-1-oxoisoindolin-2-yl)-N-(thiazol-2-yl)acetamide]
14 | < 50 nM | O=C1CCN(c2ccc(N3CCC(O)(CC(=O)N4CC5(CCN(c6ccc(-c7cc(F)c8c(c7)C(=O)N(C(C(=O)Nc7nccs7)c7ncn9c7CCC9)C8)cc6)CC5)C4)CC3)c(F)c2)C(=O)N1 (stereo not shown) [Compound 163, 2-(6,7-dihydro-5H-pyrrolo[1,2-c]imidazol-1-yl)-2-[6-[4-[2-[2-[1-[4-(2,4-dioxohexahydropyrimidin-1-yl)-2-fluoro-phenyl]-4-hydroxy-4-piperidyl]acetyl]-2,7-diazaspiro[3.5]nonan-7-yl]phenyl]-4-fluoro-1-oxo-isoindolin-2-yl]-N-thiazol-2-yl-acetamide]
15 | < 50 nM | Cn1nc(N2CCC(=O)NC2=O)c2ccc(C3CCN(CC(=O)N4CCC(n5cc(-c6cc(F)c7c(c6)C(=O)N(C(C(=O)Nc6nccs6)c6ncn8c6CCC8)C7)cn5)CC4)CC3(F)F)cc21 (stereo not shown) [Compound 105, 2-(6,7-dihydro-5H-pyrrolo[1,2-c]imidazol-1-yl)-2-(6-(1-(1-(2-(4-(3-(2,4-dioxotetrahydropyrimidin-1(2H)-yl)-1-methyl-1H-indazol-6-yl)-3,3-difluoropiperidin-1-yl)acetyl)piperidin-4-yl)-1H-pyrazol-4-yl)-4-fluoro-1-oxoisoindolin-2-yl)-N-(thiazol-2-yl)acetamide]
16 | 50 to 150 nM | Cn1nc(N2CCC(=O)NC2=O)c2ccc(C3CCN(CC(=O)N4CC5(C4)CN(c4ccc(-c6cc(F)c7c(c6)C(=O)N(C(C(=O)Nc6ccccn6)c6ncn8c6CCC8)C7)cc4)C5)C4(CC4)C3)cc21 (stereo not shown) [Compound 153, 2-(6,7-dihydro-5H-pyrrolo[1,2-c]imidazol-1-yl)-2-[6-[4-[2-[2-[7-[3-(2,4-dioxohexahydropyrimidin-1-yl)-1-methyl-indazol-6-yl]-4-azaspiro[2.5]octan-4-yl]acetyl]-2,6-diazaspiro[3.3]heptan-6-yl]phenyl]-4-fluoro-1-oxo-isoindolin-2-yl]-N-(2-pyridyl)acetamide]
